Test results taken from a melting point compilation (Tetko et al.; mined from patent text by program, amines drawn as free bases though some values may be those of a salt).

Compound	melting point
CCOC(=O)c1cc2n(C)c3ccc(OC)cc3c(=O)n2n1	249 to 251 °C
O=C(O)CNc1cc(Cl)ccc1C(=O)O	231 °C
O=C(CN1CCC(Cc2ccccc2)CC1)Nc1cccc([N+](=O)[O-])c1	102 to 104 °C
O=C(c1cccnc1)c1cccc([N+](=O)[O-])c1	73 to 76 °C
O=C(/C=C/c1ccc(O)c(O)c1)Nc1ccccc1C(=O)O	204 to 206 °C
OCc1cn(Cc2ccccc2)c(-c2ccc(OCc3ccccc3)cc2)n1	129 to 131 °C
CCOC(=O)c1cc2cccc(NC(=O)c3cc(OCc4ccccc4F)cc(OCc4ccccc4F)c3)c2[nH]1	157 to 158 °C
Nc1ncnc2c1c(-c1ccc(Oc3ccccc3)cc1)cn2C1CCOCC1	193 to 194 °C
CCc1noc(-c2cc3c(cn2)[nH]c2ccccc23)n1	146 to 149 °C
Cn1ncnc1COc1nn2c(-c3ccccc3)nnc2cc1C1CCCCC1	192 °C
O=C(CCl)Nc1ccccn1	114 to 117 °C
CCn1cc(C(=O)O)c(=O)c2cc(F)c(N3CCNC(COC)C3)cc21 (stereo unspecified)	169 to 170 °C
CS(=O)(=O)Nc1nc(CN2CCN(C(c3ccccc3)c3ccccc3)CC2)cs1	177 to 179 °C
CCOC(=O)N1CCN(c2nn(-c3ccc(F)cc3)c3ccccc23)CC1	109 to 111 °C
Cc1ncn(-c2nccc3[nH]c(=O)ccc23)c1C	256 to 258 °C
CC(C)Oc1ccc(CCCOc2cc(CCC(=O)O)n(-c3ccccc3)n2)c(Oc2ccc(Cl)cc2Cl)n1	60 to 62 °C
O=C(O)Cc1sccc1NC(=O)C(=O)NC(=O)c1ccco1	169 °C
O=C(c1ccccc1)c1ccc2sc(NCCO)nc2c1	159 °C
CN1CCC(N(C)S(=O)(=O)c2ccc(Nc3nccc(Nc4ccc(F)c(F)c4)n3)cc2)CC1	181 to 183 °C
Clc1cccc2c1nnn2C1CCCCC1	141 to 144 °C
CCCC(CCC)(CCC(N)=S)C(CCC)(CCC)C(N)=S	87 to 88 °C
COCCNC(=O)c1cccc2c1C1(COc3cc4c(cc31)OCCO4)C(=O)N2C (stereo unspecified)	97 to 100 °C
CON1CCC2(CC1)NC(=O)C(c1c(C)cc(C)cc1C)=C2OCc1ccccc1	184 to 186 °C

Compound	melting point
CN(C)C(N)=C(C#N)C(N)=S	186 to 187 °C
Cc1cc2c(c(C)c1NC(=O)CC(C)(C)C)C(c1ccccc1)CO2 (stereo unspecified)	158 to 159 °C
CN1CCC(OC(=O)N2c3ccccc3NC(=O)c3ccccc32)CC1	203 to 204 °C
O=[N+]([O-])c1ccc2nc(CS(=O)c3ccccn3)[nH]c2c1 (stereo unspecified)	207 to 209 °C
Cc1c([N+](=O)[O-])cnc(Oc2ccc(Cl)c(C(F)(F)F)c2)c1Br	73 to 74 °C
NC(=O)c1nc(-c2cccc(O)c2)nc2c1[nH]c(=O)n2CC1CCCCC1	368 to 370 °C
COc1ccc2cc(C(C)=CC(C)=O)cc(F)c2c1	126 to 127 °C
CC(C)NCCC(C(N)=O)c1ccccc1-c1ccccc1 (stereo unspecified)	92 to 95 °C
COC(=O)Cc1csc2cc(-c3ccccc3)c(C=O)n12	118 to 120 °C
Cc1ccccc1-c1c(O)c2ccccc2[nH]c1=O	> 300 °C
CCN(CC)C(=O)Cc1ccc(C(=O)c2ccc(Cl)cc2)n1C	82 to 85 °C
O=C(Nc1n[nH]c(=S)s1)N[C@@H](Cc1ccccc1)C(=O)N1CCN(c2ccccc2)CC1	210 to 211 °C
CCCC(=O)C(=C1NCCCS1)[N+](=O)[O-]	54 to 58.5 °C
CC1(C)OC(=C(C#N)C#N)C(C#N)=C1c1ccc(C2CCCCCN2)s1 (stereo unspecified)	264 °C
O=C1NC2CCCCN2C12CCNCC2 (stereo unspecified)	193 °C
Cn1ncc2c(=O)n3c(nc21)SCC3	257 to 258 °C
CCOC(=O)Cc1nc(-c2ccc(F)cc2)oc1-c1ccco1	110 to 111 °C
Cc1cc(CSCCNc2nc(NC(=O)Nc3ccccc3)nn2C)oc1CN(C)C	166 to 167 °C
CCCCCCCCCCCCn1nnc(CCC(=O)Nc2ccc(F)cc2F)n1	86 to 87 °C
CCOC(=O)CCn1c(C(=O)Nc2nc(-c3cc(OC)c(Cl)cc3OC)c(CCC3CCCCC3)s2)cc2ccccc21	79 to 85 °C
CCCc1ccc(S(=O)(=O)Nc2ccc3nc(C)c(C)nc3c2)cc1	198 to 199 °C
CC(=O)Nc1cccc(C(C)(C)O)c1CO	138 °C
Cc1cncn1Cc1cc(C(C)(C)O)cc(C(C)(C)C#N)c1	128 to 131 °C

Compound	melting point
COc1cc(C(=O)Cc2ccccc2)ccc1O	107 to 108 °C
O=C([C@@H]1C[C@@H]2CCCC[C@@H]2N1)N1CCCC1	83 °C
N#Cc1ccnc(Oc2ccc(CCNc3ncnc4scnc34)cc2)c1	145 to 148 °C
CN1CCN(C(=S)Cc2ccc(S(C)(=O)=O)cc2)CC1	172 to 177 °C
CC(=O)Nc1ccc(CNc2n[nH]c3ncnc(Nc4cccc(Cl)c4)c23)cc1	> 260 °C
CN(C)CCNC(=O)c1cn(C)c(=O)c2nc3ccccc3nc12	215 to 218 °C
Cc1ccc(C#N)c2c([N+](=O)[O-])ccc(Cl)c12	179 to 180 °C
C=CCN1C(=O)c2ccccc2Oc2nc(Cl)ccc21	110 to 112 °C
CN1CC2c3cccn3Cc3ccc(Cl)cc3N2C(=O)C1=O (stereo unspecified)	203 °C
CC(c1oc2ccccc2c(=O)c1-c1ccccc1)n1nc(-c2cccc(O)c2)c2c(N)ncnc21 (stereo unspecified)	212 to 216 °C
CCOC(=O)c1cnc2c(cnn2Cc2ccco2)c1OCC	93 to 96 °C
O=C(O)COc1ccc(SCc2cccc(OCc3ccc(C(F)(F)F)cc3)c2)c2c1CCCO2	113 to 115 °C
Cc1ccc(S(=O)(=O)N2CCNCCOCCOCCNCCN(S(=O)(=O)c3ccc(C)cc3)CC2)cc1	121 °C
C[C@H](Cn1cccn1)NC(=O)c1c[nH]c2ncc(-c3nn(C)c4cc(F)ccc34)nc12	252 to 253 °C
CCC(Oc1cnc(Cl)c(Cl)c1)C(=O)O (stereo unspecified)	117 to 118 °C
COc1cc(C(=O)NCCc2cccc(C)c2)cc(OC)c1OC	105 to 108 °C
O=C(Nc1ccc(Oc2ccnc(NCC3CC3)n2)c2ccccc12)c1cc(F)cc(N2CCOCC2)c1	116 to 117 °C
O=C1NCC(C(F)(F)F)C(=O)N1c1ccccc1 (stereo unspecified)	215 to 216 °C
Brc1cnc(SCc2cccs2)nc1	87 °C
CCCCOc1cc2ccc(C(=O)O)cc2cc1OCCCC	168 to 169 °C
O=C(Nc1ccc2c(c1)CCC(CCN1CCCC1)=C2)c1ccc(-c2ccc(Cl)cc2)cc1	207 to 209 °C

Results, then the compound that gave them:

melting point	Compound
126 to 127 °C	CCC(O)(c1ccc(O)cc1)c1ccc(C(F)(F)F)cc1 (stereo unspecified)
267 to 269 °C	NC(=O)c1nc(-c2cccc(C3=Nc4ccc(-n5cccc5)cc4NC(=O)C3)c2)cs1
225 to 226 °C	Cc1cc(-c2nc3cccnn3c2-c2ccnc(NC(=O)c3ccc(OC(F)(F)F)cc3)c2)ccc1F
154 to 155 °C	CN(C)CCn1c2c(c3ccccc31)CCS(=O)(=O)CCC2
129 °C	COc1ccc([N+](=O)[O-])c(NC(C)=O)c1
158 to 159 °C	CNC1CCCN(c2ccc3c(NC(=O)CC4CCCCC4)c(Cl)ccc3n2)C1 (stereo unspecified)
180 to 185 °C	O=C(O)c1ccc(NCCc2ccc(OCc3ccccc3)cc2)cc1
226 to 227 °C	CCCOc1ccc(NC=C(C(=O)OCC)C(=O)OCC)cc1C1=NC(=O)C2=NN=NC2=N1
122 to 123 °C	N#Cc1c(-c2ccc(Cl)cc2)c(-c2ccc(Cl)cc2)nn(CCO)c1=O
50 to 52 °C	O=C(NCCCCCCO)OC1CCN(C(=O)OCc2ccccc2)CC1
233 to 235 °C	CNC(=O)[C@H]1S[C@@H](n2cnc3c(N)nc(Cl)nc32)[C@H](O)[C@@H]1O
148 to 150 °C	N#CN1CCC(=C2c3ccccc3Oc3ccc(Cl)cc32)CC1
147 to 148 °C	CSc1ccc(C2=C(c3ccccc3)C(=O)OC23CCCC3)cc1
159 to 160 °C	O=C1O[C@H](c2ccccc2)[C@H](c2ccccc2)N[C@H]1Cc1ccccc1C1CCCCC1
80 to 85 °C	CCCn1cc(Cc2ccc(C(=O)NS(=O)(=O)c3ccccc3C)cc2OC)c2cc(CCCCC(=O)N(C)C)ccc21
169 to 170 °C	Clc1ncc(-c2ccc3ccncc3c2)c2ccccc12
76 °C	COc1ccc(OCc2ccccc2)c2[nH]c(C)c(C)c12

melting point	Compound
114 to 116 °C	O=C1c2ccccc2C(=O)N1[C@@H]1C=CC[C@H]1O (relative stereo)
55 to 56 °C	CCCCCCCCCCCCCCCCSCC(CO)NC(=O)OC (stereo unspecified)
112 to 114 °C	NC(=O)CCCCCCCCCCn1nnnc1S
103 to 105 °C	COc1ccc2c(c1)C(=O)C(=Cc1cccc([N+](=O)[O-])c1)C(C)(C)O2
56 to 57 °C	Cc1c(C)c2c(c(C)c1Br)OCC2c1ccc(C(C)C)cc1 (stereo unspecified)
241 to 244 °C	CC(C)(C)NC(=O)N1Cc2c(-c3ccc(F)cc3)ncn2-c2ccccc21
223 °C	O=P(O)(O)C(O)(CCc1nn(-c2ccc(F)cc2)cc1-c1ccc(Cl)cc1)P(=O)(O)O
105 to 107 °C	C1=C(c2c[nH]c3ccccc23)CN(Cc2ccccc2)CC1
137 to 141 °C	CCC(=Cc1cccnc1)C(=O)NCCCCN1CCN(C(c2ccccc2)c2ccccc2)CC1
207 to 209 °C	O=S1(=O)NCN(C2CCCCC2)c2cc(Cl)c(Cl)cc21
179 to 181 °C	Cc1ccc(Cc2ccc3nc(N)sc3c2)s1
246 °C	Oc1ccc(-c2nn(-c3ccc(Br)cc3)c3cc(O)ccc23)c(O)c1
193 to 194 °C	CSC1C(O)C(CO)OC1n1ccc(NC(=O)c2ccccc2)nc1=O (stereo unspecified)
275 °C	NC(=O)CN1C(=O)C(NC(=O)c2cc3ccccc3[nH]2)C(Cc2ccccc2)Sc2ccccc21 (stereo unspecified)
109 to 110 °C	CCOC(=O)NN=C(CO)c1cccc(Cl)c1
120 to 123 °C	CC(C)(C)[Si](C)(C)OCc1cccc(-c2ccc3nc(Cl)cn3c2)c1
167 to 170 °C	CC(=O)CN1CCc2c(c(=O)oc3cc4c(cc23)OCO4)C1
